Entries after “also recorded” stand apart in the source; their conditions may differ.
Legend:
[1] = tested on: MDA-MB-231 tumors and patient-derived HT17 and HT39 breast tumors; assay: intravasation assay (circulating tumor cells in blood); type: in vivo, SCID mice; details: injected intraperitoneally four hours prior to the experiments; MDA-MB-231, HT17 and HT39 tumors; vs vehicle or control IgG
Description: (§1) SB431542 was used, a small molecule specific inhibitor of the TGFβ receptor (14,38), which was injected into the tumor-bearing mice prior to measurements of invasion and intravasation. Invasion was measured by count of the total cells that chemotax and invade in the primary tumor towards a gradient source (EGF or FBS) with the in vivo invasion assay. Intravasation and dissemination was measured by count of the circulating tumor cells in the total blood of tumorbearing mice.
(§2) The inhibitors SB431542 (a small molecule specific inhibitor of the TGFβ receptor), NSC87877 (a small molecule specific inhibitor of PTPN11) were used, and a neutralizing antibody specific to human IL8 for the experiments. Because the focus of the study is migration and invasion, a drug treatment of only 4 hours was given to the mice before experimental assays so that an acute effect on migration can be measured without long-term effects on tumor growth. Invasion was measured by count of the total cells that chemotax and invade in the primary tumor towards a gradient source (EGF or FBS) with the in viva invasion assay. Intravasation and hematogenous dissemination was measured by count of the circulating tumor cells (CTCs) in the blood of tumor-bearing mice. […] No significant difference in overall cell death was observed by histology in the treated tumors with the four-hour acute treatments. […] As a negative control, an inhibitor to a gene was used that was not identified by the HIS, namely, MYC, a known oncogene recently identified as a master regulator of expression in “poor-outcome” cancer signatures. […] Most of the published signatures to date are isolated from whole patient samples, and therefore represent “whole-picture” information about the metastatic process, a summary of invasion, dissemination, and growth/proliferation. […]
(§3) Animal Models. […] The mice were monitored for growth for up to 9 months, at which time if a tumor was not visible they were euthanized. For the tumors that grew, in vivo invasion was measured, and then the tumor was used to passage to new mice (surgical procedure same as before). […]

[2] = tested on: MDA-MB-231 tumors and patient-derived HT17 and HT39 breast tumors; assay: in vivo invasion assay in tumor-bearing mice; design: species or system SCID mice; details: injected intraperitoneally four hours prior to the experiments; EGF or FBS gradient; MDA-MB-231, HT17 and HT39 tumors; vs vehicle or control IgG
Description: as §1, §2, §3

MDA-MB-231 xenograft = assay: BrdU incorporation (proliferation marker) in tumors; type: in vivo; details: MDA-MB-231 xenograft mice, acute treatment
Source text: FIG. 13A-13C. […] (15A). Schematic of experimental design for the inhibitor treatments. (15B). Representative images of immunostained tumors sections with BrdU antibody (black) and counterstained for nuclei (gray). (15C). Quantification of the above experiments is shown for 3 mice per group, and 10 random 40× images per mouse/tumor (excluding necrotic areas). Bars represent the average percentage of BrdU positive nuclei (black) over total (gray). Error bars: SEM. p-values by Student's t-test.
The inhibitors SB431542 (a small molecule specific inhibitor of the TGFβ receptor), NSC87877 (a small molecule specific inhibitor of PTPN11) were used, and a neutralizing antibody specific to human IL8 for the experiments. Because the focus of the study is migration and invasion, a drug treatment of only 4 hours was given to the mice before experimental assays so that an acute effect on migration can be measured without long-term effects on tumor growth. Invasion was measured by count of the total cells that chemotax and invade in the primary tumor towards a gradient source (EGF or FBS) with the in viva invasion assay. Intravasation and hematogenous dissemination was measured by count of the circulating tumor cells (CTCs) in the blood of tumor-bearing mice. […] No significant difference in overall cell death was observed by histology in the treated tumors with the four-hour acute treatments. […]

Row | Structure (SMILES) | intravasation / tumor cell dissemination (circulating tumor cells in blood) [1] | in vivo invasion (total cells that chemotax and invade in the primary tumor towards a gradient source, cells per microneedle) [2] | BrdU incorporation (percentage of BrdU positive nuclei; proliferation in vivo) (MDA-MB-231 xenograft)
1 | O=S(=O)(O)c1ccc2cc(N=Nc3cc(S(=O)(=O)O)c4cccnc4c3O)ccc2c1 [NSC87877, 8-Hydroxy-7-[(6-sulfo-2-naphthyl)azo]-5-quinolinesulfonic acid] | significantly abrogated; also recorded: significantly inhibited | significantly abrogated; also recorded: significantly inhibited | –
2 | CCc1ccc(/C=C2/SC(=S)NC2=O)cc1 [10058-F4] | did not significantly alter | did not significantly alter | significantly reduced; also recorded: significantly inhibits
3 | NC(=O)c1ccc(-c2nc(-c3ccc4c(c3)OCO4)c(-c3ccccn3)[nH]2)cc1 [SB431542, 4-[4-(1,3-benzodioxol-5-yl)-5-(2-pyridinyl)-1H-imidazol-2-yl]benzamide] | effectively abrogate; also recorded: significantly inhibited | effectively abrogate; also recorded: significantly inhibited | –
